Results from article PMC5242521 (PLoS ONE, 2017).
Where two headings read alike, the source gives them in different places.

Tests used:
[1] = biological target: T1, OCT1 (Homo sapiens, UniProt O15245); assay: OCT1 activity: DAPI accumulation in HEK-OCT1 cells; settings: for IC50: IC50 for OCT1 inhibition, HEK-OCT1 cells; for IC50 / effect on OCT1 activity: DAPI; for inhibition at 100 μM: human, pH 7.4; for effect on OCT1 activity: pyrethroid 100 μM
T1 sequence (O15245 1-554): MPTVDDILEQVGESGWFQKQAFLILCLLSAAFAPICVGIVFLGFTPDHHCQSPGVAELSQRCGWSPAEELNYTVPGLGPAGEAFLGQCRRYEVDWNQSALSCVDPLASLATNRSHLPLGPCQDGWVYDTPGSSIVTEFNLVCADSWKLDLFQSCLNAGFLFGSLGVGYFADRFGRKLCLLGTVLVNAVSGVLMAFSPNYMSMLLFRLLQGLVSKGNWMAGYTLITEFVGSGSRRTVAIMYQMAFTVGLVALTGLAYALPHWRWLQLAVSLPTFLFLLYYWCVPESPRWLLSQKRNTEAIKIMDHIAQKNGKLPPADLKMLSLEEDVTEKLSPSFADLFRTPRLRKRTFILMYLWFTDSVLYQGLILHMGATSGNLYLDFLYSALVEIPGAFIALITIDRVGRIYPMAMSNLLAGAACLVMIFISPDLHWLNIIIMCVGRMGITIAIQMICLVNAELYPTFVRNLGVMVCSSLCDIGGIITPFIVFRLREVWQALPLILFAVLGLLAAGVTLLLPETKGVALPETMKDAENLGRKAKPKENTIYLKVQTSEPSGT
Description: (§1) The effects of pyrethroids on activity of ABC and SLC transporters were determined through measuring cellular accumulation or retention of fluorescent or radiolabeled reference substrates for transporters, in the presence or absence of reference inhibitors, as previously described. The nature of cells and reference substrates and inhibitors used for transport assays are summarized in S3 Table.
(§2) The nature of substrates and reference inhibitors and the incubation times with substrates, that varied according to the transporter, were selected in agreement with previous studies and are indicated in S3 Table. The total incubation volume with substrates was 200 μL/well. […] An aliquot of cell lysate (5 μL) was then taken for determining cellular protein content by the Bradford method.
(§3) Intracellular concentrations of reference substrates were initially expressed as fluorescence arbitrary units (for fluorescent dye substrates) or as moles (for radiolabeled substrates) and normalized to cellular protein content, determined by the Bradford method. They were finally used for calculating percentage of transporter activity, according to the following equations [41, 45]: %ABCtransporter activity=([Substrateref inh]-[Substratepyrethroid])×100/([Substrateref inh]-[Substratecontrol]) (1) %SLC transporter activity=([Substratepyrethroid]-[Substratref inh])×100/([Substratecontrol]-[Substrateref inh]) (2) with [Substratepyrethroid] = cellular concentration of reference substrate in the presence of pyrethroid, [Substrateref inh] = cellular concentration of reference substrate in the presence of reference inhibitor and [Substratecontrol] = cellular concentration of reference substrate in control cells not exposed to pyrethroid or reference inhibitor.
(§4) The initial tested concentration of pyrethroids was 100 μM. […] Such concentrations were calculated using GraphPad Prism software (GraphPad Software, La Jolla, CA), through nonlinear regression based on the four parameter logistic function using the following equations: […]

[2] = biological target: T2, OAT1 (Homo sapiens, UniProt Q4U2R8); assay: OAT1 activity: fluorescein accumulation in HEK-OAT1 cells; format: cell-based
T2 construct: host or cells: HEK293
T2 sequence (Q4U2R8 1-563): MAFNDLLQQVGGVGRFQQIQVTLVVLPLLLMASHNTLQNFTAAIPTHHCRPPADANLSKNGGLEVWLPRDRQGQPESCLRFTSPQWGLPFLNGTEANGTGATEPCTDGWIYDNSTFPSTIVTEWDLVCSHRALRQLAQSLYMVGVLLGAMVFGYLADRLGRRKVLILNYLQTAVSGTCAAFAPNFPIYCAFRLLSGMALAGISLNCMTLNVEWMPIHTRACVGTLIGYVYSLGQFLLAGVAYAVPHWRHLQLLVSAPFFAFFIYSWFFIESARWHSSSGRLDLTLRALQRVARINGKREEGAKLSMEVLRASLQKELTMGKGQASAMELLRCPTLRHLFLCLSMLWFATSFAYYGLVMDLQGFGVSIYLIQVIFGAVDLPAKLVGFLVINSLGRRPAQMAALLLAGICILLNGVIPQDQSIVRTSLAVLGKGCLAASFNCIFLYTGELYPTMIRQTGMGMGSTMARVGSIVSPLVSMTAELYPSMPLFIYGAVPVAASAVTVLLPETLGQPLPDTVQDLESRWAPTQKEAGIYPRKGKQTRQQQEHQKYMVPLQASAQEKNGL
Description: The effects of pyrethroids on activity of ABC and SLC transporters were determined through measuring cellular accumulation or retention of fluorescent or radiolabeled reference substrates for transporters, in the presence or absence of reference inhibitors, as previously described [41].
The total incubation volume with substrates was 200 μL/well. […] An aliquot of cell lysate (5 μL) was then taken for determining cellular protein content by the Bradford method [44].
Intracellular concentrations of reference substrates were initially expressed as fluorescence arbitrary units (for fluorescent dye substrates) or as moles (for radiolabeled substrates) and normalized to cellular protein content, determined by the Bradford method [44]. They were finally used for calculating percentage of transporter activity, according to the following equations [41, 45]: %ABCtransporter activity=([Substrateref inh]-[Substratepyrethroid])×100/([Substrateref inh]-[Substratecontrol]) (1) %SLC transporter activity=([Substratepyrethroid]-[Substratref inh])×100/([Substratecontrol]-[Substrateref inh]) (2) with [Substratepyrethroid] = cellular concentration of reference substrate in the presence of pyrethroid, [Substrateref inh] = cellular concentration of reference substrate in the presence of reference inhibitor and [Substratecontrol] = cellular concentration of reference substrate in control cells not exposed to pyrethroid or reference inhibitor.

[3] = biological target: T3, OCT2 (Homo sapiens, UniProt O15244); assay: OCT2 activity: rhodamine 123 accumulation in HEK-OCT2 cells; settings: for effect on OCT2 activity: pyrethroid 100 μM
T3 sequence (O15244 1-555): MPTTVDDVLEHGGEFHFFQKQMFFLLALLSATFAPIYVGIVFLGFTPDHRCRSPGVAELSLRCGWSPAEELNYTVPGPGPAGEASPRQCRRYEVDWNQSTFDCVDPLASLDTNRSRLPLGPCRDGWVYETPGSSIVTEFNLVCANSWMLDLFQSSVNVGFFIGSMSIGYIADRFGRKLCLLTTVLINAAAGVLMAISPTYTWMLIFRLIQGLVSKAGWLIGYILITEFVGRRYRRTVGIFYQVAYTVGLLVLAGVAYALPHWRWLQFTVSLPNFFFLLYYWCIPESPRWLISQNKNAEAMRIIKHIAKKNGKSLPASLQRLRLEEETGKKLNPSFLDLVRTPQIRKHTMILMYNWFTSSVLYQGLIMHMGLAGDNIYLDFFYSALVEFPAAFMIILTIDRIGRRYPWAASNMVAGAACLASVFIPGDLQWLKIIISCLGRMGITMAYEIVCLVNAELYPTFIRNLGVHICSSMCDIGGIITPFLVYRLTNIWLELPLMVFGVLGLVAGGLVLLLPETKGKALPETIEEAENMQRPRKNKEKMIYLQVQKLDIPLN
Description: as §1, §2, §3, §4

[4] = biological target: T1, OCT1; assay: Dopamine accumulation in OCT1-transfected HEK293 cells; format: cell-based
Description: HEK-MOCK and HEK-OCT1 cells were incubated with transport assay medium containing 11 nM 3,4-[Ring-2,5,6-^3H]-dopamine, in the absence or presence of the reference OCT1 inhibitor verapamil or of pyrethroids for 5 min at 37°C in the transport assay medium described above. After washing twice with PBS, cells were lysed in distilled water and intracellular accumulation of dopamine was finally measured by scintillation counting.
(A) HEK-OCT1 and HEK-MOCK cells were incubated with 11 nM 3,4-[Ring-2,5,6-^3H]-dopamine in the absence or presence of the reference OCT1 inhibitor verapamil (100 μM) for 5 min at 37°C. Intracellular accumulation of 3,4-[Ring-2,5,6-^3H]-dopamine was then determined by scintillation counting. […] Intracellular accumulation of 3,4-[Ring-2,5,6-^3H]-dopamine was then determined by scintillation counting. Data are expressed as percentages of OCT1-mediated transport of dopamine in control pyrethroid-unexposed cells, determined by subtracting accumulation of dopamine in HEK-MOCK cells from that in HEK-OCT1 cells in the absence of pyrethroids, arbitrarily set at 100% and indicated by a dotted line on the graph.

| SMILES | IC50 [1] [µM] | inhibition at 100 μM [1] [%] | effect on OAT1 activity [2] | IC50 [3] [µM] | effect on OCT2 activity [3] | effect on OCT1-mediated dopamine uptake ([4]; pyrethroid 10 μM) | effect on OCT1 activity [1] | effect on OAT1 activity ([2]; pyrethroid up to 100 μM) | effect on OAT1 activity ([2]; pyrethroid up to 100 μM, listed as Allethrin) | effect on OCT1-mediated transport of dopamine ([4]; pyrethroid 10, 100 or 300 μM, 11 nM dopamine, 5 min) |
| --- | --- | --- | --- | --- | --- | --- | --- | --- | --- | --- |
| CC(C)=CC1C(C(=O)OCN2C(=O)C3=C(CCCC3)C2=O)C1(C)C (stereo not shown) [tetramethrin] | 4.9 | 73.8 | No effect (up to 100 μM) | 11.2 | markedly inhibit | failed to significantly alter |  |  |  |  |
| C#CCN1CC(=O)N(COC(=O)[C@@H]2C(C=C(C)C)C2(C)C)C1=O (mixture of isomers) [imiprothrin] |  |  |  |  | inhibited |  | markedly inhibited | failed to alter |  |  |
| C=CCC1=C(C)C(OC(=O)C2C(C=C(C)C)C2(C)C)CC1=O (stereo not shown) [allethrin] | 2.6 | 87.9 |  | 42.6 | markedly inhibit |  |  | failed to alter | No effect (up to 100 μM) | significantly inhibit |
| C#CCC1=C(C)C(OC(=O)C2C(C=C(C)C)C2(C)C)CC1=O (stereo not shown) [prallethrin] |  |  |  |  | inhibited |  | markedly inhibited | failed to alter |  |  |
